Data published in the supplement of paper PMC10883282.
± gives the standard deviation of the averaged measurements.

Test system: MES-SA
Experiment: relative viability vs DMSO control (72 h) (fraction); higher = more viable cells
How it was run: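 Sarcoma cell lines went into 384-well plates at densities chosen to reach 80–90% confluence. After 24 h, each well received 2.5 µl of serially diluted compound, with source plates running from 10 mM to 0.0002 mM, and the plates were kept 72 h at 37 °C, 5% CO2, alongside 0.1% DMSO vehicle and a 5 µM positive control. Relative viability was derived from ATPLite readings as percent growth and averaged over up to triplicate wells. The data were then rescaled so that 1 stands for full and 0 for none.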

| SMILES | relative viability (0.00017 µM) | relative viability (0.00051 µM) | relative viability (0.00152 µM) | relative viability (0.00457 µM) | relative viability (0.01372 µM) | relative viability (0.04115 µM) | relative viability (0.1235 µM) | relative viability (0.3704 µM) | relative viability (1.111 µM) | relative viability (3.333 µM) | relative viability (10 µM) |
| --- | --- | --- | --- | --- | --- | --- | --- | --- | --- | --- | --- |
| Cc1cc(C)c(/C=C2\C(=O)Nc3ccccc32)[nH]1 [Semaxanib] | 0.908 ± 0.058 | 0.866 ± 0.02 | 0.866 ± 0.022 | 0.892 ± 0.027 | 0.882 ± 0.04 | 0.861 ± 0.061 | 0.871 ± 0.059 | 0.895 ± 0.035 | 0.889 ± 0.044 | 0.867 ± 0.041 | 0.798 ± 0.048 |
| O=C(Nc1cnn2ccc(N3CCC[C@@H]3c3cc(F)ccc3F)nc12)N1CC[C@H](O)C1 [Larotrectinib] | 0.929 ± 0.024 | 0.932 ± 0.046 | 0.923 ± 0.054 | 0.896 ± 0.056 | 0.931 ± 0.022 | 0.929 ± 0.039 | 0.894 ± 0.073 | 0.897 ± 0.022 | 0.916 ± 0.027 | 0.893 ± 0.048 | 0.877 ± 0.015 |
| C=CC(=O)N1CCC[C@@H](n2nc(-c3ccc(Oc4ccccc4)cc3)c3c(N)ncnc32)C1 [Ibrutinib] | 1 ± 0.018 | 0.977 ± 0.021 | 0.955 ± 0.041 | 0.947 ± 0.029 | 0.966 ± 0.026 | 0.964 ± 0.026 | 0.931 ± 0.03 | 0.864 ± 0.011 | 0.866 ± 0.045 | 0.88 ± 0.022 | 0.6991 ± 0.0047 |
| CC(C)N1CCN(Cc2cnc(-c3cc(-c4cccc5[nH]ccc45)cc4[nH]ncc34)o2)CC1 [Nemiralisib] | 0.967 ± 0.032 | 0.961 ± 0.022 | 0.953 ± 0.05 | 0.958 ± 0.05 | 0.977 ± 0.033 | 0.926 ± 0.039 | 0.979 ± 0.047 | 0.964 ± 0.043 | 0.911 ± 0.024 | 0.764 ± 0.028 | 0.486 ± 0.027 |
| CN1CCN(c2ccc3nc(-c4c(N)c5c(F)cccc5[nH]c4=O)[nH]c3c2)CC1 [Dovitinib] | 0.945 ± 0.032 | 0.974 ± 0.029 | 0.95 ± 0.021 | 0.95 ± 0.017 | 0.9483 ± 0.0052 | 0.9283 ± 0.009 | 0.921 ± 0.04 | 0.836 ± 0.041 | 0.4858 ± 0.0047 | 0.191 ± 0.012 | 0.0897 ± 0.0022 |
| COc1c(OCCCN2CCOCC2)ccc2c1N=C(NC(=O)c1cnc(N)nc1)N1CCN=C21 [Copanlisib] | 0.966 ± 0.029 | 0.926 ± 0.031 | 0.9 ± 0.019 | 0.633 ± 0.029 | 0.502 ± 0.016 | 0.374 ± 0.0084 | 0.273 ± 0.0095 | 0.164 ± 0.0066 | 0.147 ± 0.0029 | 0.18 ± 0.0026 | 0.159 ± 0.0078 |
| CNC(=O)c1ccc(-c2cnc3ncc(Cc4ccc5ncccc5c4)n3n2)cc1F [Capmatinib] | 0.93 ± 0.025 | 0.959 ± 0.037 | 0.958 ± 0.028 | 0.953 ± 0.057 | 0.943 ± 0.012 | 0.945 ± 0.036 | 0.982 ± 0.012 | 0.934 ± 0.012 | 0.937 ± 0.055 | 0.867 ± 0.035 | 0.837 ± 0.025 |
| Cn1cc(-c2cc3c(N4CCN(c5ncc([C@@](C)(N)c6ccc(F)cc6)cn5)CC4)ncnn3c2)cn1 [Avapritinib] | 0.882 ± 0.024 | 0.867 ± 0.036 | 0.8778 ± 0.0081 | 0.884 ± 0.016 | 0.91 ± 0.016 | 0.902 ± 0.038 | 0.898 ± 0.02 | 0.884 ± 0.018 | 0.795 ± 0.014 | 0.624 ± 0.02 | 0.51 ± 0.011 |
| CCCS(=O)(=O)Nc1ccc(F)c(C(=O)c2c[nH]c3ncc(-c4ccc(Cl)cc4)cc23)c1F [Vemurafenib] | 0.941 ± 0.024 | 0.951 ± 0.025 | 0.957 ± 0.013 | 0.957 ± 0.026 | 0.955 ± 0.031 | 0.953 ± 0.018 | 0.967 ± 0.028 | 0.995 ± 0.022 | 0.9726 ± 0.0075 | 0.782 ± 0.02 | 0.51 ± 0.01 |
| CC1(C)CNc2cc(NC(=O)c3cccnc3NCc3ccncc3)ccc21 [Motesanib] | 0.93 ± 0.044 | 0.946 ± 0.034 | 0.962 ± 0.01 | 0.937 ± 0.023 | 0.949 ± 0.061 | 0.947 ± 0.047 | 0.961 ± 0.02 | 1 ± 0.044 | 0.96 ± 0.035 | 0.948 ± 0.013 | 0.849 ± 0.041 |
| C=CC(=O)Nc1cccc(Oc2nc(Nc3ccc(N4CCN(C)CC4)cc3)nc3ccsc23)c1 [Olmutinib] | 0.931 ± 0.038 | 0.964 ± 0.027 | 0.916 ± 0.037 | 0.937 ± 0.055 | 0.918 ± 0.036 | 0.955 ± 0.045 | 0.968 ± 0.035 | 0.954 ± 0.012 | 0.9273 ± 0.0055 | 0.751 ± 0.029 | 0.448 ± 0.025 |
| COc1cc2nccc(Oc3ccc(NC(=O)Nc4cc(C)on4)c(Cl)c3)c2cc1OC [Tivozanib] | 0.914 ± 0.018 | 0.926 ± 0.051 | 0.925 ± 0.036 | 0.932 ± 0.035 | 0.94 ± 0.0096 | 0.944 ± 0.035 | 0.923 ± 0.013 | 0.955 ± 0.025 | 0.977 ± 0.021 | 0.697 ± 0.041 | 0.231 ± 0.0086 |
| CNC(=O)c1cc(Oc2ccc(NC(=O)Nc3ccc(Cl)c(C(F)(F)F)c3)c(F)c2)ccn1 [Regorafenib] | 0.973 ± 0.026 | 0.9876 ± 0.0026 | 0.972 ± 0.037 | 0.955 ± 0.036 | 0.968 ± 0.022 | 0.96 ± 0.03 | 0.997 ± 0.067 | 0.965 ± 0.045 | 0.923 ± 0.064 | 0.735 ± 0.038 | 0.246 ± 0.01 |
| Cc1ccc(F)c(NC(=O)Nc2ccc(-c3cccc4[nH]nc(N)c34)cc2)c1 [Linifanib] | 0.979 ± 0.013 | 0.968 ± 0.02 | 0.942 ± 0.014 | 0.956 ± 0.035 | 0.974 ± 0.01 | 0.971 ± 0.015 | 0.969 ± 0.011 | 0.918 ± 0.033 | 0.935 ± 0.01 | 0.75 ± 0.21 | 0.933 ± 0.014 |
| Cc1cnc(Nc2ccc(OCCN3CCCC3)cc2)nc1Nc1cccc(S(=O)(=O)NC(C)(C)C)c1 [Fedratinib] | 0.966 ± 0.046 | 0.959 ± 0.035 | 0.953 ± 0.026 | 0.937 ± 0.029 | 0.949 ± 0.025 | 0.907 ± 0.018 | 0.861 ± 0.018 | 0.679 ± 0.03 | 0.2659 ± 0.0019 | 0.18 ± 0.0027 | 0.028 ± 0.0026 |
| C=CC(=O)N1CCC([C@@H]2CCNc3c(C(N)=O)c(-c4ccc(Oc5ccccc5)cc4)nn32)CC1 [Zanubrutinib] | 0.9598 ± 0.0038 | 0.965 ± 0.013 | 0.959 ± 0.026 | 0.983 ± 0.033 | 0.918 ± 0.031 | 0.95 ± 0.037 | 0.92 ± 0.041 | 0.965 ± 0.034 | 0.955 ± 0.018 | 0.881 ± 0.041 | 0.742 ± 0.034 |
| CN1CCC(COc2cnc(-c3cccc(Cn4nc(-c5cccc(C#N)c5)ccc4=O)c3)nc2)CC1 [Tepotinib] | 0.962 ± 0.038 | 0.959 ± 0.0044 | 0.95 ± 0.023 | 0.974 ± 0.033 | 0.955 ± 0.043 | 0.928 ± 0.035 | 0.939 ± 0.028 | 0.9528 ± 0.0065 | 0.94 ± 0.042 | 0.875 ± 0.027 | 0.752 ± 0.024 |
| Cc1nc(NC(=O)N2CCC[C@H]2C(N)=O)sc1-c1ccnc(C(C)(C)C(F)(F)F)c1 [Alpelisib] | 0.884 ± 0.046 | 0.909 ± 0.053 | 0.901 ± 0.01 | 0.88 ± 0.052 | 0.879 ± 0.033 | 0.843 ± 0.034 | 0.774 ± 0.014 | 0.64 ± 0.016 | 0.526 ± 0.019 | 0.43 ± 0.015 | 0.323 ± 0.0056 |
